In US11332473B2, “Substituted pyrazolo[3,4-d]pyrimidines as Wee1 inhibitors” (NUVATION BIO INC., priority 2019, dated 2022):

Assays:
WEE1 kinase enzyme = WEE1 kinase enzyme (Homo sapiens (Human), UniProt P30291); experiment: WEE1 IC50 determination, LanthaScreen Terbium Labeled TR-FRET kinase assay; assay type: biochemical; details: WEE1 enzyme 1 nM, ATP 10 μM
Method: IC50 values of compounds against WEE1 kinase enzyme were determined by LanthaScreen™ Terbium Labeled TR-FRET assay. Kinase assays were performed in 1X kinase buffer (#PV6135, Invitrogen, Life Technologies Grand Island, N.Y.) where total reaction volume was 10 μL in low-volume 384-well plates (#4511, Corning). Serially diluted compounds (3-fold) were incubated with WEE1 Enzyme (1 nM) (#PR7373A, Invitrogen, Life Technologies, Grand Island, N.Y.) for 10 min; a mixture of ATP (10 μM) (#A1852, Sigma, St. Louis, Mo.) and fluorescent-PolyGT substrate (200 nM) (#PV3610, Invitrogen, Life Technologies Grand Island, N.Y.) was added and incubated in dark at room temperature for 1 h. After 1 h, 10 μL stop solution containing Terbium labeled antibody (4 nM) (#PV3529, Invitrogen, Life Technologies Grand Island, N.Y.) and EDTA (#E5134, Sigma, St. Louis, Mo.) (20 mM) in TR-FRET dilution buffer (#PV3574, Invitrogen, Life Technologies Grand Island, N.Y.) was added. Readings were taken in a Synergy Neo Plate reader (BioTek, Winooski, Vt.) at single excitation of 340 nm and dual emission at 495 nm and 520 nm respectively.
The % activity of test samples was calculated as (Sample−Min)*100/(Max−Min). [Max: DMSO control, complete reaction with enzyme & DMSO and Min: No enzyme & DMSO].

PKMYT1 kinase = PKMYT1 kinase (Homo sapiens (Human), UniProt Q99640); experiment: PKMYT1 IC50 determination, HotSpot Kinase Assay; assay type: biochemical; details: 10 μM ATP, 33P-ATP, Myelin Basic Protein substrate
PKMYT1 kinase, sequence (Q99640 whole entry): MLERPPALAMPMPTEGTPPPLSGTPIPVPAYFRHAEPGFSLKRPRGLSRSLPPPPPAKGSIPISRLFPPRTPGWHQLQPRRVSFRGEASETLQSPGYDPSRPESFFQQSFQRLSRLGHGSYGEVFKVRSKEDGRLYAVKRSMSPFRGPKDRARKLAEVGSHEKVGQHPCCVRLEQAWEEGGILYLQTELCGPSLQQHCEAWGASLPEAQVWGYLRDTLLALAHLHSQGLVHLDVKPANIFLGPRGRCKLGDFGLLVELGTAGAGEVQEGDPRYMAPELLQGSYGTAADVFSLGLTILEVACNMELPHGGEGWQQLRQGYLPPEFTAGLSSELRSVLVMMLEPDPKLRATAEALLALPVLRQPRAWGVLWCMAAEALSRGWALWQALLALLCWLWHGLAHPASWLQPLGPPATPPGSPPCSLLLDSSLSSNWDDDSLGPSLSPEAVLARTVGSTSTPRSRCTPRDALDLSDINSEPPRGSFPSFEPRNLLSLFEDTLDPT
Method: Inhibition of PKMYT1 kinase activity by test compounds was measured by the HotSpot Kinase Assay at Reaction Biology Corporation (Malvern, Pa.). Briefly, Myelin Basic Protein substrate was prepared in Reaction Buffer (20 mM Hepes (pH 7.5), 10 mM MgCl2, 1 mM EGTA, 0.01% Brij35, 0.02 mg/mL BSA, 0.1 mM Na3VO4, 2 mM DTT, 1% DMSO). PKMYT1 kinase was delivered into the substrate solution and gently mixed. Test compounds in 100% DMSO were added into the kinase reaction mixture by Acoustic technology (Echo550; nanoliter range) and incubated for 20 min at room temperature. ^33P-ATP was delivered into the reaction mixture to initiate the reaction. Reactions were carried out at 10 μM ATP. After a 2 hour incubation at room temperature, kinase activity was detected by P81 filter-binding method. […] A nonlinear regression model with a sigmoidal dose response and variable slope within GraphPad Prism (GraphPad Software, San Diego, Calif.) was used to calculate the IC50 value of individual test compounds.

A427 cells = experiment: Cytotoxicity assay in A427 cell line (resazurin); assay type: cell-based; details: Homo sapiens, A-427; A427 lung epithelial cell line, 72 hr, inhibition of proliferation
Method: A427 (HTB-53; ATCC), a lung epithelial cell line, was seeded in medium (MEM, 41090101; Gibco) at a cell count of 1500 cells per 100 μL per well in a 96 well edge plate (167425; ThermoFisher). Cells were allowed to grow at 37° C. for 24 hr in 5% CO2 environment (culture conditions) in a Nuaire incubator (humidified). Serially diluted test compounds (100 μL) within the desired testing concentration ranges were added to the culture plate and the cells were further incubated in culture conditions for 72 hr. The experiment was terminated at the designated incubation time by replacing the medium with 100 μL of 1 mM of resazurin (R7017; Sigma) prepared in culture medium, and the plates were further incubated in culture conditions for 4-6 hr. Fluorescence was recorded using a multimodal plate reader (Biotek Synergy Neo) at an excitation wavelength of 535 nm and emission wavelength of 590 nm to obtain relative fluorescence units. Data were analysed as follows: the background fluorescence (blank containing only medium) value was subtracted from each reading and normalized with the vehicle control (DMSO treated cells) to obtain percent survival/proliferation. Percent survival was subtracted from 100 to get the percent inhibition of proliferation which was used to calculate IC50 values. Potency of compounds in other cell lines (such as A549, AsPc-1, Panc 10.05, A172, U-87MG) may be determined in an analogous manner.

WEE1 kinase enzyme, sequence (P30291 whole entry): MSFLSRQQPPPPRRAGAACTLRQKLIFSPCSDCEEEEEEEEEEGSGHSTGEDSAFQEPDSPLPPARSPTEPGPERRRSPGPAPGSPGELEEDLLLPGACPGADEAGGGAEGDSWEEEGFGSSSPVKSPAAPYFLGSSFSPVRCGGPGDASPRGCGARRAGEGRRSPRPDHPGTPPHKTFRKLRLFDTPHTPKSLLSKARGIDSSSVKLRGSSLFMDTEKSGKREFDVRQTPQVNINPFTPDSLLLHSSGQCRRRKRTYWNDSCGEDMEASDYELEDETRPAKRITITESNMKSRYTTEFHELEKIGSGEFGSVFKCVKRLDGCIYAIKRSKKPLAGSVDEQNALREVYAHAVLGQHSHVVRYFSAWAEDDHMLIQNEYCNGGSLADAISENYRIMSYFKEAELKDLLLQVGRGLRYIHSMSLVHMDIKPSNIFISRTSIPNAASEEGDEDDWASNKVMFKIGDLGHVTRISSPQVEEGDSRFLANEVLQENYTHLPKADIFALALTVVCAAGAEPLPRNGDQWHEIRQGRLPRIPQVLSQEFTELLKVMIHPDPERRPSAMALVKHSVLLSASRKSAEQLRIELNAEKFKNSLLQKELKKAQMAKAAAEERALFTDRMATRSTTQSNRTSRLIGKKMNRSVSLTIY

| Structure (SMILES) | IC50 (WEE1 kinase enzyme) [nM] | IC50 (PKMYT1 kinase) [nM] | IC50 (A427 cells) [nM] |
| --- | --- | --- | --- |
| CC(C)n1c(=O)c2cnc(Nc3ccc4c(c3)CNCC4)nc2n1-c1nc(C(C)(C)C#N)ccc1F [1.322, 2-(5-fluoro-6-(2-isopropyl-3-oxo-6-(1,2,3,4-tetrahydroisoquinolin-7-ylamino)-2,3-dihydro-1H-pyrazolo[3,4-d]pyrimidin-1-yl)pyridin-2-yl)-2-methylpropanenitrile] | – | 7490 | – |
| CC(C)n1c(=O)c2cnc(Nc3ccc4c(c3)CNCC4)nc2n1-c1csc(C2CC2)n1 [1.465, 1-(2-cyclopropylthiazol-4-yl)-2-isopropyl-6-((1,2,3,4-tetrahydroisoquinolin-7-yl)amino)-1,2-dihydro-3H-pyrazolo[3,4-d]pyrimidin-3-one] | 45 | > 30000 | > 30000 |
| CC(C)n1c(=O)c2cnc(Nc3ccc4c(c3)CCNC4(C)C)nc2n1-c1ccc(F)c(C(C)(C)O)n1 [1.251, 6-((1,1-dimethyl-1,2,3,4-tetrahydroisoquinolin-6-yl)amino)-1-(5-fluoro-6-(2-hydroxypropan-2-yl)pyridin-2-yl)-2-isopropyl-1,2-dihydro-3H-pyrazolo[3,4-d]pyrimidin-3-one] | 7 | 6690 | 12400 |
| CC(C)n1c(=O)c2cnc(Nc3ccc4c(c3)CNCC4)nc2n1-c1nc(C(C)(C)C)c(Cl)s1 [1.349, 1-(4-(tert-butyl)-5-chlorothiazol-2-yl)-2-isopropyl-6-((1,2,3,4-tetrahydroisoquinolin-7-yl)amino)-1,2-dihydro-3H-pyrazolo[3,4-d]pyrimidin-3-one] | 384 | 19900 | 490 |
| CC(C)(F)c1nc(-n2c3nc(Nc4ccc5c(c4)CCNC5(C)C)ncc3c(=O)n2C2CC2)ccc1F [1.5, 2-cyclopropyl-6-((1,1-dimethyl-1,2,3,4-tetrahydroisoquinolin-6-yl)amino)-1-(5-fluoro-6-(2-fluoropropan-2-yl)pyridin-2-yl)-1,2-dihydro-3H-pyrazolo[3,4-d]pyrimidin-3-one] | 5 | 5500 | 7600 |
| CC(C)n1c(=O)c2cnc(Nc3ccc4c(c3)CNCC43CC3)nc2n1-c1ccc(F)c(C(C)(C)O)n1 [1.254, 6-((2′,3′-dihydro-1′H-spiro[cyclopropane-1,4′-isoquinolin]-7′-yl)amino)-1-(5-fluoro-6-(2-hydroxypropan-2-yl)pyridin-2-yl)-2-isopropyl-1,2-dihydro-3H-pyrazolo[3,4-d]pyrimidin-3-one] | 140 | 3560 | – |
| CC(C)n1c(=O)c2cnc(Nc3ccc4c(c3)CNCC4)nc2n1-c1ccc(F)c(C(C)(C)O)n1 [1.250, 1-(5-fluoro-6-(2-hydroxypropan-2-yl)pyridin-2-yl)-2-isopropyl-6-((1,2,3,4-tetrahydroisoquinolin-7-yl)amino)-1,2-dihydro-3H-pyrazolo[3,4-d]pyrimidin-3-one] | 8 | 13500 | – |
| CC(C)n1c(=O)c2cnc(Nc3ccc4c(c3)CCNC4)nc2n1-c1csc(C2CC2)n1 [1.464, 1-(2-cyclopropylthiazol-4-yl)-2-isopropyl-6-((1,2,3,4-tetrahydroisoquinolin-6-yl)amino)-1,2-dihydro-3H-pyrazolo[3,4-d]pyrimidin-3-one] | 49 | 28800 | 24600 |
| CCn1c(=O)c2cnc(Nc3ccc4c(c3)CCNC4(C)C)nc2n1-c1nc(C(C)(C)C#N)ccc1F [1.335, 2-(6-(6-(1,1-dimethyl-1,2,3,4-tetrahydroisoquinolin-6-ylamino)-2-ethyl-3-oxo-2,3-dihydro-1H-pyrazolo[3,4-d]pyrimidin-1-yl)-5-fluoropyridin-2-yl)-2-methylpropanenitrile] | 5 | – | 4730 |

More lines, main results first:

| IC50 (WEE1 kinase enzyme) [nM] | IC50 (PKMYT1 kinase) [nM] | Structure (SMILES) | IC50 (A427 cells) [nM] |
| --- | --- | --- | --- |
| 3 | 6920 | CC(C)n1c(=O)c2cnc(Nc3ccc4c(c3)CCNC4)nc2n1-c1cccc(C2(CF)CC2)n1 [1.91, 1-(6-(1-(fluoromethyl)cyclopropyl)pyridin-2-yl)-2-isopropyl-6-((1,2,3,4-tetrahydroisoquinolin-6-yl)amino)-1,2-dihydro-3H-pyrazolo[3,4-d]pyrimidin-3-one] | – |
| 3 | 1170 | CC(C)n1c(=O)c2cnc(Nc3ccc4c(c3)CNCC4)nc2n1-c1cccc(C2(C#N)CC2)n1 [1.44, 1-(6-(2-isopropyl-3-oxo-6-((1,2,3,4-tetrahydroisoquinolin-7-yl)amino)-2,3-dihydro-1H-pyrazolo[3,4-d]pyrimidin-1-yl)pyridin-2-yl)cyclopropane-1-carbonitrile] | 892 |
| 15 | 2900 | CC(C)n1c(=O)c2cnc(Nc3ccc4c(c3)CCNC4)nc2n1-c1ccnc(C2(C#N)CC2)c1 [1.67, 1-(4-(2-isopropyl-3-oxo-6-(1,2,3,4-tetrahydroisoquinolin-6-ylamino)-2,3-dihydro-1H-pyrazolo[3,4-d]pyrimidin-1-yl)pyridin-2-yl)cyclopropanecarbonitrile] | 2580 |
| 8 | 16800 | CCn1c(=O)c2cnc(Nc3ccc4c(c3)CNCC4)nc2n1-c1ccc(F)c(C(C)(C)O)n1 [1.262, 2-ethyl-1-(5-fluoro-6-(2-hydroxypropan-2-yl)pyridin-2-yl)-6-((1,2,3,4-tetrahydroisoquinolin-7-yl)amino)-1,2-dihydro-3H-pyrazolo[3,4-d]pyrimidin-3-one] | – |
| 8 | 767 | N#CC1(c2cccc(-n3c4nc(Nc5ccc6c(c5)CNCC6)ncc4c(=O)n3CC(F)(F)F)n2)CC1 [1.32, 1-(6-(3-oxo-6-(1,2,3,4-tetrahydroisoquinolin-7-ylamino)-2-(2,2,2-trifluoroethyl)-2,3-dihydro-1H-pyrazolo[3,4-d]pyrimidin-1-yl)pyridin-2-yl)cyclopropanecarbonitrile] | 870 |
| 1 | – | CCn1c(=O)c2cnc(Nc3ccc4c(c3)CCNC43CC3)nc2n1-c1cccc(C2(C#N)CC2)n1 [1.42, 1-(6-(6-(2′,3′-dihydro-1^1H-spiro[cyclopropane-1,4′-isoquinoline]-7′-ylamino)-2-ethyl-3-oxo-2,3-dihydro-1H-pyrazolo[3,4-d]pyrimidin-1-yl)pyridin-2-yl)cyclopropanecarbonitrile] | 255 |
| 4 | 121 | CCn1c(=O)c2cnc(Nc3ccc4c(c3)CNCC4(C)C)nc2n1-c1cccc(C2(C#N)CC2)n1 [1.40, 1-(6-(6-((4,4-dimethyl-1,2,3,4-tetrahydroisoquinolin-7-yl)amino)-2-ethyl-3-oxo-2,3-dihydro-1H-pyrazolo[3,4-d]pyrimidin-1-yl)pyridin-2-yl)cyclopropane-1-carbonitrile] | – |
| 1 | – | CCn1c(=O)c2cnc(Nc3ccc4c(c3)CCNC4(C)C)nc2n1-c1cccc(C2(C#N)CC2)n1 [1.39, 1-(6-(6-(1,1-dimethyl-1,2,3,4-tetrahydroisoquinolin-6-ylamino)-2-ethyl-3-oxo-2,3-dihydro-1H-pyrazolo[3,4-d]pyrimidin-1-yl)pyridin-2-yl)cyclopropanecarbonitrile] | 510 |
| 18 | – | CCn1c(=O)c2cnc(Nc3ccc4c(c3)CCNC4(C)C)nc2n1-c1ccnc(C2(C#N)CC2)c1 [1.63, 1-(4-(6-((1,1-dimethyl-1,2,3,4-tetrahydroisoquinolin-6-yl)amino)-2-ethyl-3-oxo-2,3-dihydro-1H-pyrazolo[3,4-d]pyrimidin-1-yl)pyridin-2-yl)cyclopropane-1-carbonitrile] | 17200 |
